Test results reported in patent US9573972B2, “Nurotoxic sterol glycosides” (priority 2008, dated 2017).

System: male CD-1 mice
Test: Gait analysis (Digigait), SG-fed mice
Format: in vivo, mouse
Conditions: SG-fed vs control
Excerpt: Five-month old male CD-1 mice (30.1-35.7 g, 7.5 cm-8.8 cm) were purchased from Charles River (Wilmington, Mass.). Adult mice were chosen to mimic the mean age of onset of ALS-PDC (Kurland, L. T. (1988a) Trends Neurosci. 11, 51-4; Kurland, L. T., et al. (1994) Amyotrophic lateral sclerosis-parkinsonism-dementia complex on Guam: epidemiologic and etiological perspectives. 109-131). Thirty mice for the SG study were randomly divided into 2 groups (14 control and 16 experimental animals). All animals were housed singly in a virus-free barrier facility in a room maintained at 22° C. under a 12 hour light/dark cycle. The mice were provided ad libitum access to food and water.
The synthetic SG was mixed with finely ground Purina Chow mouse pellets (Mouse Diet™, Purina) to create the experimental pellets with a SG content of 1000 μg per pellet. Dry materials were blended with a sterile silicon spatula. For every 5 g of standard feed, 2.5 mL of doubly-distilled water (dd)H2O was added and the dough was kneaded and round up into pellets. A single sterol glucoside containing pellet was placed in the feeding tray each morning before the addition of regular mouse chow (ad libitum). All experimental pellets were entirely consumed by the mice each day. Control mice were fed standard mouse chow pellets of identical weight with no additives. SG feeding was conducted daily for 15 weeks and mice were behaviorally monitored until sacrifice at 35 weeks (time point 1) or 52 weeks (time point 2).
Gait analysis: In order to examine spatial and temporal indices of front and hind limb stepping patterns during forward locomotion, mice were required to run on a colorless (PVC and polycarbonate), straight, level, walled motorized belt (Digigait™, treadmill motor: DC, HP; torque 451b-in, Mouse Specifics, Inc., Boston, Mass., USA) set at 30 rpm with a no-flicker light source (90-250 VAC; 25 kHZ, Mouse Specifics, Inc., Boston, Mass., USA) and camera mounted ventrally (relative to the animal) to facilitate continuous ventral plane videography (up to 150 frames per second) of activity. Gait indices were analyzed with the complementary digital imaging software (Digigait™, Mouse Specifics, Inc., Boston, Mass., USA) as per manufacturer's instructions. Briefly, the software converts “paw prints” into a digital signal and generates a temporal record of paw placement and breaks down the digital file into three main parameters: stride duration, swing duration, and stance duration. The stance duration is the period during which the paw of a limb is in contact with the belt surface. The software further subdivides the stance duration into two components: braking duration (the increase in paw contact area over a discrete time interval) and propulsion duration (the decrease in paw contact area over a discrete time interval). The swing duration is the period of time that a paw is not in contact with the belt surface. In addition to these factors, over a dozen additional characteristics, including stance factor, step-sequence pattern, propulsion, and cadence are generated to provide a spreadsheet format report of twenty-five gait indices.

With `CC[C@H](/C=C/[C@@H](C)[C@H]1CC[C@H]2[C@@H]3CC=C4C[C@@H](O[C@@H]5O[C@H](CO)[C@@H](O)[C@H](O)[C@H]5O)CC[C@]4(C)[C@H]3CC[C@]12C)C(C)C` [SG, Stigmasterol β-D-Glucopyranoside] the Forelimb braking (Time-point 1 (35 wk)) was “Forelimb braking (ns)”, the Forelimb propulsion (Time-point 1 (35 wk)) was “Forelimb propulsion (ns)” and the Forelimb stance width (Time-point 1 (35 wk)) was “Forelimb stance width (ns)”. The Forelimb stride length (Time-point 1 (35 wk)) was “Forelimb stride length (ns)”, the Hind limb braking (Time-point 1 (35 wk)) was “Hind limb braking (ns)” and the Hind limb propulsion (Time-point 1 (35 wk)) was “Hind limb propulsion (ns)”. For the same molecule, the “Hind limb stance width” value (Time-point 1 (35 wk)) was “Hind limb stance width (ns)”, the “Hind limb stride frequency” value (Time-point 1 (35 wk)) was “Hind limb stride frequency (ns)” and the “Hind limb stride length” value (Time-point 1 (35 wk)) was “Hind limb stride length (ns)”. The Forelimb braking (Time-point 2 (52 wk)) was “Forelimb braking* (*p < 0.05)”, the Forelimb propulsion (Time-point 2 (52 wk)) was “Forelimb propulsion* (*p < 0.05)” and the Hind limb braking (Time-point 2 (52 wk)) was “Hind limb braking* (*p < 0.05)”. The Hind limb propulsion (Time-point 2 (52 wk)) was “Hind limb propulsion* (*p < 0.05)” and the “Hind limb stride frequency” value (Time-point 2 (52 wk)) was “Hind limb stride frequency* (*p < 0.05)”.
